Experimental findings from ChEMBL document CHEMBL1201862, “PubChem BioAssay data set” (2004) are described below.

Assay in all cases: inhibition of tumour cell growth, NCI panel, 48 h
Experiment [1] deals with SW-620.
The test system of experiment [2] is NCI-H460.
Experiment [3] has as its system SF-268.
Experiment [4] deals with A549.
The test system of experiment [5] is HCT-15.
Experiment [6] deals with SN12C.
Experiment [7] relates to NCI-H522.
Experiment [8] concerns K562.
The test system of experiment [9] is UACC-62.
Experiment [10] concerns HOP-92.
Experiment [11] relates to LOX IMVI.
The subject of experiment [12] is KM12.
The subject of experiment [13] is TK-10.
Experiment [14] relates to ACHN.
Experiment [15] concerns SR.
The test system of experiment [16] is CAKI-1.

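Cells were grown in 96-well plates and exposed to each compound for 48 hours at five concentrations; endpoints were interpolated linearly between bracketing concentrations, or set to the highest concentration if not reached. Here, GI50 denotes the concentration required for 50% inhibition of growth.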 The source made the active and inactive calls. Cut-off read from the data, not from the text of the source: active = GI50 up to about 1.1 µM and inactive = higher.

Consider `Cc1ccc(-c2cc(-c3ccco3)c(C#N)c(O)n2)cc1`, for which the GI50 in [1] is > 100 µM (inactive); in [2] it was > 100 µM (inactive); in [3] it was > 100 µM (inactive); in [4], > 100 µM (inactive); in experiment [5], greater than 100 µM; in experiment [6] it was > 100 µM (inactive). The GI50 in experiment [7], in [8], in experiment [9], in experiment [10], in experiment [11] and in experiment [12] was > 100 µM (inactive) each time. The GI50 in experiment [13] and in experiment [14] was > 100 µM (inactive) in each case.
Take `NCCCOCC(=O)O`: the GI50 in experiment [1] was > 100 µM (inactive); in [3], > 100 µM (inactive); in experiment [4], > 100 µM (inactive); in [15] it was > 100 µM (inactive); in [5], greater than 100 µM; in [6], > 100 µM (inactive). For the same molecule, the GI50 in experiment [8], in [9], in [10], in experiment [12], in [13] and in experiment [14] was > 100 µM (inactive) in each case.
For the molecule `CCOC(=O)c1sc2c(sc(=O)n2-c2ccccc2)c1O`, the GI50 in [2] is > 100 µM (inactive); in experiment [3] it was > 100 µM (inactive); in experiment [4], > 100 µM (inactive); in experiment [15], 67.6 µM (inactive); in experiment [5], greater than 100 µM; in [6], > 100 µM (inactive). Moreover, the GI50 was > 100 µM (inactive) in experiment [7]; > 100 µM (inactive) in experiment [8]; > 100 µM (inactive) in experiment [9]; > 100 µM (inactive) in experiment [10]; > 100 µM (inactive) in [16]; 55.7 µM (inactive) in [11]. Further, the GI50 in [12], in experiment [13] and in [14] was > 100 µM (inactive) in each case.
For `c1cnc2c(c1)-n1cccc1C1(CCCCC1)NN2`, the GI50 was > 100 µM (inactive) in experiment [1]; 61.5 µM (inactive) in experiment [2]; > 100 µM (inactive) in experiment [3]; 54 µM (inactive) in experiment [4]; 40 µM (inactive) in experiment [15]; 37.4 µM in experiment [5]. In addition, the GI50 in experiment [6] is > 100 µM (inactive); in [7] it was 63.1 µM (inactive); in experiment [8] it was 45.1 µM (inactive); in experiment [16], 60 µM (inactive); in experiment [11], 50 µM (inactive); in experiment [12], 99.1 µM (inactive). The GI50 was 75.3 µM (inactive) in [13] and 88.3 µM (inactive) in experiment [14].
For `O=C1/C(=C(\Nc2ccccc2)c2ccccc2)C=NN1c1ccccc1`, the GI50 in [1] is > 100 µM (inactive); in experiment [2], 96.4 µM (inactive); in [3], > 100 µM (inactive); in [4], > 100 µM (inactive); in experiment [5], greater than 100 µM; in [6] it was > 100 µM (inactive). Further, the GI50 was > 100 µM (inactive) in experiment [7]; 72.8 µM (inactive) in experiment [8]; > 100 µM (inactive) in experiment [9]; > 100 µM (inactive) in experiment [16]; > 100 µM (inactive) in experiment [11]; > 100 µM (inactive) in [12]. The GI50 in [13] was > 100 µM (inactive); in experiment [14], 61 µM (inactive).
In the case of `COC(=O)C(=O)C(C(=O)C=C(C)C)C(=O)C(=O)Nc1nc2ccc([N+](=O)[O-])cc2s1` (stereo not drawn), the GI50 in experiment [1] was > 100 µM (inactive); in experiment [2] it was 72.8 µM (inactive); in [3], 39 µM (inactive); in experiment [4], 78.7 µM (inactive); in experiment [5] it was 50.6 µM; in experiment [6], 37.9 µM (inactive). In addition, the GI50 in experiment [7] was 23.7 µM (inactive); in experiment [8] it was 46.2 µM (inactive); in experiment [9], 38.5 µM (inactive); in experiment [10], 27.3 µM (inactive); in experiment [16], 29.5 µM (inactive); in experiment [11] it was 56.4 µM (inactive). For the same molecule, the GI50 in [12] is 98.9 µM (inactive); in experiment [13] it was 38.5 µM (inactive); in [14], 33.3 µM (inactive).
`C=CCNC(=O)NCCCC(NC(C)=O)C(=O)NCc1ccccc1` (stereo not drawn): the GI50 in [1] was > 100 µM (inactive); in experiment [2], > 100 µM (inactive); in [3] it was > 100 µM (inactive); in [4], > 100 µM (inactive); in [5], greater than 100 µM; in experiment [6], > 100 µM (inactive). The GI50 in [7], in [8], in experiment [9], in experiment [10], in experiment [16] and in experiment [11] was > 100 µM (inactive) in each case. Besides, the GI50 in experiment [12], in experiment [13] and in experiment [14] was > 100 µM (inactive) each time.
In the case of `CN1C(=O)N(C)C2(O)c3ccccc3C(=O)C12O` (stereo not drawn), the GI50 in experiment [1] was > 100 µM (inactive); in [2], > 100 µM (inactive); in experiment [3] it was > 100 µM (inactive); in experiment [4] it was > 100 µM (inactive); in experiment [15], > 100 µM (inactive); in [5] it was greater than 100 µM. Besides, the GI50 in experiment [6], in experiment [7], in [8], in [9], in experiment [16] and in experiment [11] was > 100 µM (inactive) throughout. Also, the GI50 in experiment [12], in experiment [13] and in experiment [14] was > 100 µM (inactive) each time.
In the case of `OCC(O)C(OC1OC(CO)C(O)C(O)C1O)c1nn(-c2ccccc2)c2nc3cc(Cl)ccc3nc12` (stereo not drawn), the GI50 in [2] was > 100 µM (inactive); in experiment [3] it was > 100 µM (inactive); in experiment [15], > 100 µM (inactive); in experiment [5] it was greater than 100 µM; in [6] it was > 100 µM (inactive); in [7], > 100 µM (inactive). Further, the GI50 in experiment [8], in experiment [9], in experiment [11], in experiment [12], in experiment [13] and in experiment [14] was > 100 µM (inactive) each time.
For `Cc1ccc(S(=O)(=O)c2c(N)n(CCN(C)C)c3nc4ccccc4nc23)cc1`, the GI50 in experiment [2] was > 100 µM (inactive); in [3], > 100 µM (inactive); in experiment [4], > 100 µM (inactive); in [5], greater than 100 µM; in [6] it was > 100 µM (inactive); in experiment [7] it was 3.13 µM (inactive). Also, the GI50 in [8] is > 100 µM (inactive); in [10], > 100 µM (inactive); in experiment [12] it was 45.1 µM (inactive); in [13], 99.8 µM (inactive); in experiment [14], > 100 µM (inactive).
`CC(=O)OC1(C(C)=O)CC2(c3ccccc3)OC1(c1ccccc1)c1ccccc12` (stereo not drawn): the GI50 in experiment [1] was 16.7 µM (inactive); in [2], 10.4 µM (inactive); in experiment [3], 52.5 µM (inactive); in [4], 25.3 µM (inactive); in experiment [15], 6.56 µM (inactive); in experiment [5] it was 6.38 µM. For the same molecule, the GI50 in [6] was 35.6 µM (inactive); in experiment [7], 4.26 µM (inactive); in experiment [9], 4.36 µM (inactive); in experiment [10], 17.7 µM (inactive); in [11], 16.4 µM (inactive); in experiment [12], 17.3 µM (inactive). Moreover, the GI50 in experiment [13] was 17.6 µM (inactive); in [14] it was 16.6 µM (inactive).
For the molecule `CC(=O)Nc1ccc(/C=C/C(=O)c2sc(C(N)=S)nc2C)cc1`, the GI50 in [1] is > 100 µM (inactive); in [2], > 100 µM (inactive); in experiment [3], > 100 µM (inactive); in experiment [4], > 100 µM (inactive); in experiment [5], greater than 100 µM; in [6] it was > 100 µM (inactive). Also, the GI50 in [7], in experiment [8], in experiment [9], in experiment [10], in experiment [16] and in experiment [11] was > 100 µM (inactive) throughout. The GI50 in experiment [12] and in experiment [13] was > 100 µM (inactive) each time.
In the case of `CN1CCC23c4c5ccc(O)c4OC2C(=NN=C2CCC4(O)C6Cc7ccc(O)c8c7C4(CCN6C)C2O8)CCC3(O)C1C5` (stereo not drawn), the GI50 in experiment [1] was > 100 µM (inactive); in experiment [2], > 100 µM (inactive); in experiment [3] it was > 100 µM (inactive); in experiment [4] it was > 100 µM (inactive); in experiment [5] it was greater than 100 µM; in experiment [6], > 100 µM (inactive). Besides, the GI50 in [7], in [8], in [9], in experiment [10], in experiment [16] and in [11] was > 100 µM (inactive) throughout. Also, the GI50 in experiment [12], in experiment [13] and in experiment [14] was > 100 µM (inactive) in each case.
On to `CC(C)(CN1CCCCC1)C(=O)CC(SCCS(=O)(=O)O)c1ccc(Br)cc1` (stereo not drawn), for which the GI50 in [2] was 2.14 µM (inactive); in [3], 2.61 µM (inactive); in [4], 1.98 µM (inactive); in experiment [5], 2.82 µM; in experiment [6] it was 1.34 µM (inactive); in [7] it was 1.15 µM (inactive). The GI50 was 1.21 µM (inactive) in experiment [8]; 1.84 µM (inactive) in experiment [9]; 0.578 µM (active) in experiment [10]; 2.4 µM (inactive) in experiment [16]; 2 µM (inactive) in experiment [12]; 2.56 µM (inactive) in experiment [13]. Further, the GI50 in experiment [14] is 1.67 µM (inactive).
